Results published in ChEMBL document CHEMBL4130587, “Chemical Compounds as Inhibitors of Kinase Activity for the Treatment of Cancer and COPD” (ACS Med Chem Lett, 2017).

What was measured:
[1] = target: Phosphatidylinositol 4,5-bisphosphate 3-kinase catalytic subunit alpha isoform (Homo sapiens, UniProt P42336); experiment: Inhibition of GST-tagged PI3Kalpha […] (unknown origin) using PIP2 as subtrate after 1 hr in presence of biotin-labeled PIP3 by TR-FRET assay
[2] = target: Phosphatidylinositol 4,5-bisphosphate 3-kinase catalytic subunit gamma isoform (Homo sapiens, UniProt P48736); experiment: Inhibition of GST-tagged PI3Kgamma […] (unknown origin) using PIP2 as subtrate after 1 hr in presence of biotin-labeled PIP3 by TR-FRET assay
Sequence of Phosphatidylinositol 4,5-bisphosphate 3-kinase catalytic subunit gamma isoform (P48736 whole entry, canonical isoform): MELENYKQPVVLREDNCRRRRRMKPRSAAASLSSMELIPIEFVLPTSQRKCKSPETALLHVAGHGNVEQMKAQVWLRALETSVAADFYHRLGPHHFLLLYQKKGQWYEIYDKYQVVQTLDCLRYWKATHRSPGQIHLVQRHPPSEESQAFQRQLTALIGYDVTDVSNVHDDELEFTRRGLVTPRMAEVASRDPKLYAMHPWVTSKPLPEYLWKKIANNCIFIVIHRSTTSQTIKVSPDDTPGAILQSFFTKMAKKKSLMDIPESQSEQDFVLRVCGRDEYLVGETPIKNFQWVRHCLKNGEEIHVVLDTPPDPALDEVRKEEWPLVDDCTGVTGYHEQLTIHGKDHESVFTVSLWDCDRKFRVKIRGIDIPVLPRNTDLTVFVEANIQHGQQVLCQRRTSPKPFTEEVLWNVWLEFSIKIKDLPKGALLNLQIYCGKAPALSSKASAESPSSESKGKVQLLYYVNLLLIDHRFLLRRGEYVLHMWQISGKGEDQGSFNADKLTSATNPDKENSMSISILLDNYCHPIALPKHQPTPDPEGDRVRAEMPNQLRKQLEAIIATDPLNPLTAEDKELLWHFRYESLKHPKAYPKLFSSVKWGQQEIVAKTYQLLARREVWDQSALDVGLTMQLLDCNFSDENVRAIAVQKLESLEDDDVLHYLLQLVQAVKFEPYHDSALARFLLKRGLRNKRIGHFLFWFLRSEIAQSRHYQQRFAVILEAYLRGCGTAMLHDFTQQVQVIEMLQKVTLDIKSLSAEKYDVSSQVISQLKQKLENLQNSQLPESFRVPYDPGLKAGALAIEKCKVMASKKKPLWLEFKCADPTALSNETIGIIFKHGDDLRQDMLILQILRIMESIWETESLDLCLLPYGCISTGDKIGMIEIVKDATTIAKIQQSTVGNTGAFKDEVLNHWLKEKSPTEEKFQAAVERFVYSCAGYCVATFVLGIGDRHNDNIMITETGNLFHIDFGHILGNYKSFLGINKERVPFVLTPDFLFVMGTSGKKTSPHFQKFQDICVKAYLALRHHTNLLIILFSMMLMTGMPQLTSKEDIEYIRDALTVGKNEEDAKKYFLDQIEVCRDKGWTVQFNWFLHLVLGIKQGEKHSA

[3] = target: Phosphatidylinositol 4,5-bisphosphate 3-kinase catalytic subunit beta isoform (Homo sapiens, UniProt P42338); experiment: Inhibition of GST-tagged PI3Kbeta […] (unknown origin) using PIP2 as subtrate after 1 hr in presence of biotin-labeled PIP3 by TR-FRET assay
Sequence of Phosphatidylinositol 4,5-bisphosphate 3-kinase catalytic subunit beta isoform (P42338 whole entry, canonical isoform): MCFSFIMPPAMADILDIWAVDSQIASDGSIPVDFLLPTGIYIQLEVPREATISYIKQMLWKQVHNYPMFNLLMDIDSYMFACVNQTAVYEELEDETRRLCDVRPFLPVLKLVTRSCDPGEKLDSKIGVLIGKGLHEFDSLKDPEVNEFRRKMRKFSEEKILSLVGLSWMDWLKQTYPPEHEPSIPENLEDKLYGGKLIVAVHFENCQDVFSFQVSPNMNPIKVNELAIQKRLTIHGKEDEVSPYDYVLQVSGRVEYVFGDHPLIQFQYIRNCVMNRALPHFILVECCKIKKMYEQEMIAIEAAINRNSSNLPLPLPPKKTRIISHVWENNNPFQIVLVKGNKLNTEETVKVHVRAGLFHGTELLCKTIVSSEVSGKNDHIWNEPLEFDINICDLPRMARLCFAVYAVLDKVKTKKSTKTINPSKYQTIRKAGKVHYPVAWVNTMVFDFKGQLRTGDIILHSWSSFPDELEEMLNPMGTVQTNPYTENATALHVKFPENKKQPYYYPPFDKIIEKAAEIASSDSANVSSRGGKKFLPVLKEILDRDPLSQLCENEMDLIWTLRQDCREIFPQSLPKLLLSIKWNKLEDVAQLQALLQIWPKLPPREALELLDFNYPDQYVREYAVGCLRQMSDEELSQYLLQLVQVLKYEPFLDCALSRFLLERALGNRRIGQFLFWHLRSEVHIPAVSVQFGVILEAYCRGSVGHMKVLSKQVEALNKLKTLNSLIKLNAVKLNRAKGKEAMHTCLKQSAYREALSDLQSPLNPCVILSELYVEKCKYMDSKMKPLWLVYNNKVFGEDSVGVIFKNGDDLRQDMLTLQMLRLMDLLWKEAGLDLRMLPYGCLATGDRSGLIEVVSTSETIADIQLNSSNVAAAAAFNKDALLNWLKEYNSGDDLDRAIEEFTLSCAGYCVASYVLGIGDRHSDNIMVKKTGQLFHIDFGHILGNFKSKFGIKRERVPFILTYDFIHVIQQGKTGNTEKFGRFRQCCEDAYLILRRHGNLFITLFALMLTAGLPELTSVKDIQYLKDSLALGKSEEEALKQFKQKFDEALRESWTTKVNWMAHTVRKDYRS

[4] = target: T1, Phosphatidylinositol 4,5-bisphosphate 3-kinase catalytic subunit delta isoform (Homo sapiens, UniProt O00329); experiment: Inhibition of GST-tagged PI3Kdelta […] (unknown origin) using PIP2 as subtrate after 1 hr in presence of biotin-labeled PIP3 by TR-FRET assay
T1 sequence (O00329 whole entry): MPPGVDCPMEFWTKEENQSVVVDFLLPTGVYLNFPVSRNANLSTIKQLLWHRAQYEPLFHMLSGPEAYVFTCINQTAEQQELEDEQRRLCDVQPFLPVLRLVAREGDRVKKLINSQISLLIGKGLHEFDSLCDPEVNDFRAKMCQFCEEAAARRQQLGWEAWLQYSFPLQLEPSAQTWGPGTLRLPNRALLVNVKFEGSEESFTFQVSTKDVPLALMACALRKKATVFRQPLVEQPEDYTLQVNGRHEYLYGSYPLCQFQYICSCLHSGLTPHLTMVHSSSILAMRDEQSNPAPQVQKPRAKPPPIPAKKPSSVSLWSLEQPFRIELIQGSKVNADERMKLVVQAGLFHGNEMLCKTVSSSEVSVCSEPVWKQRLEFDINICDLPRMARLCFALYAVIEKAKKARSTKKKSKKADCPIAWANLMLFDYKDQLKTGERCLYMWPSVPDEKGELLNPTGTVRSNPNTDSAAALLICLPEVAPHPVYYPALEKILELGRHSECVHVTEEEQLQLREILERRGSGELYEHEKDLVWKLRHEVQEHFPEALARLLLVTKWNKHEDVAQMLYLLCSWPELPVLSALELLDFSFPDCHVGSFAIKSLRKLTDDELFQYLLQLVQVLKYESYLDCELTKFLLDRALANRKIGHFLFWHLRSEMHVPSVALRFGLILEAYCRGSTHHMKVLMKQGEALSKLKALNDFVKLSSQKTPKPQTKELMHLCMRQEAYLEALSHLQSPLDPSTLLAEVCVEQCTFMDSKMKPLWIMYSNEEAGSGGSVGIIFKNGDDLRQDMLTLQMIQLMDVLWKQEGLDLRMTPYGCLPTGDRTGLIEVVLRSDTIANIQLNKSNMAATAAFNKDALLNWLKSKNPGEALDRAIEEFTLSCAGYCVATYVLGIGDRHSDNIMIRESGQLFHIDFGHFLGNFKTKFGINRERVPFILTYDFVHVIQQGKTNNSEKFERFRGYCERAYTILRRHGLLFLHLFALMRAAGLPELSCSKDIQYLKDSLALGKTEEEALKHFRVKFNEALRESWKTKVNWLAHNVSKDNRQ

Measured: IC50

Sequence of Phosphatidylinositol 4,5-bisphosphate 3-kinase catalytic subunit alpha isoform (P42336 whole entry, canonical isoform): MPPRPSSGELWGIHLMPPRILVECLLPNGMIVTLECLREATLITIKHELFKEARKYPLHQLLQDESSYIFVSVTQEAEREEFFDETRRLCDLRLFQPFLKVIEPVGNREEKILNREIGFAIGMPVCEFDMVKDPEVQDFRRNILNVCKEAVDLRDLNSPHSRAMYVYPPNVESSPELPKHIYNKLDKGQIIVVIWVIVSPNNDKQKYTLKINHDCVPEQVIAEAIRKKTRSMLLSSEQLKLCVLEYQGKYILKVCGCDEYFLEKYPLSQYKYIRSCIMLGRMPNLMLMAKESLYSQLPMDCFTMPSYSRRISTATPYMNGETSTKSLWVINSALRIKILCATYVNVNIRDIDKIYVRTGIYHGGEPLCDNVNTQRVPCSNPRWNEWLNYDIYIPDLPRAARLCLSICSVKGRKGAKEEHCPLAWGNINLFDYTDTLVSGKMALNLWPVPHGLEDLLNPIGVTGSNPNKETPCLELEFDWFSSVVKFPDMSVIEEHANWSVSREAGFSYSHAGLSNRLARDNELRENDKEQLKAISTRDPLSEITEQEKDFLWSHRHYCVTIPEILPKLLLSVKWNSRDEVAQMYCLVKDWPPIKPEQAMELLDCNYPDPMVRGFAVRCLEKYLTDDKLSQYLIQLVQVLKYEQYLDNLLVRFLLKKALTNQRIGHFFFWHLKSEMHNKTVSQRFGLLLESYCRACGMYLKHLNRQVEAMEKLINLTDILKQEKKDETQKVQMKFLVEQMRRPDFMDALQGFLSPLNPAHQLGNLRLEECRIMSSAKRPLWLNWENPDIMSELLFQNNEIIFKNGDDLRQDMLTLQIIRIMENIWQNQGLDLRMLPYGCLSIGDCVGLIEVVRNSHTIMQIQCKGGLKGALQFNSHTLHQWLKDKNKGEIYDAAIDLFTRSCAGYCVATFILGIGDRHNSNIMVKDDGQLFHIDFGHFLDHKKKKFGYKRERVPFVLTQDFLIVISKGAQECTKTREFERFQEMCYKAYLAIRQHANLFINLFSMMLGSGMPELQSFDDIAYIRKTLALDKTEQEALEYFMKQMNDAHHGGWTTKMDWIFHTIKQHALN

COc1ncc(N2CCOCC2)cc1S(=O)(=O)Nc1ccnc(-c2ccc(CN3CCN(C4COC4)CC3)cc2)c1
≤ 10 µM: all assays above

COc1ncc(N2CCOCC2)cc1S(=O)(=O)Nc1ccnc(-c2ccc(CN3CCCC3)c(F)c2)c1
≤ 10 µM: all assays above

COc1ncc(N2CCOCC2)cc1S(=O)(=O)Nc1ccnc(-c2ccc(CN3CCN(C(C)C)CC3)c(F)c2F)c1
≤ 10 µM: all assays above

COc1ncc(N2CCOCC2)cc1S(=O)(=O)Nc1ccnc(-c2ccc(CN3CCN(C4COC4)CC3)cc2F)c1
≤ 10 µM: all assays above

COc1ncc(N2CCOCC2)cc1S(=O)(=O)Nc1ccnc(-c2ccc(CN3CCCC3)cc2F)c1
≤ 10 µM: all assays above

COc1ncc(N2CCOCC2)cc1S(=O)(=O)Nc1ccnc(-c2cc(F)c(CN3CCN(C(C)C)CC3)c(F)c2)c1
≤ 10 µM: all assays above
